Source: patent US20120165319A1, “INHIBITORS OF INTERLEUKIN-1 BETA CONVERTING ENZYME” (VERTEX PHARMACEUTICALS INCORPORATED, priority 1995, published 2012)
Entries after “also recorded” stand apart in the source; their conditions may differ.

Assays:
[1] = biological target: T1, ICE (Homo sapiens, UniProt P29466); assay: Enzyme assay with fluorescent substrate (Acetyl-Tyr-Val-Ala-Asp-AMC); Ki and second order rate constants kinact; format: biochemical
T1 sequence (P29466 120-297 limits assumed): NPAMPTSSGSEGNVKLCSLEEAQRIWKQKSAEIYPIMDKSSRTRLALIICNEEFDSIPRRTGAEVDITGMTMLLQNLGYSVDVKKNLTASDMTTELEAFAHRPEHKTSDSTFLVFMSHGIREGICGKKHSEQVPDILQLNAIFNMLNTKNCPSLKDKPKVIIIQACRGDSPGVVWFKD
T1 sequence (P29466 317-404 limits assumed): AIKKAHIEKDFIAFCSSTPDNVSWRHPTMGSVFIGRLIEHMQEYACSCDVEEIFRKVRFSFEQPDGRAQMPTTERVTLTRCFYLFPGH
Procedure: 2. Enzyme Assay with Fluorescent Substrate
This assay is run essentially according to Thornberry et al. (Nature 356: 768-774 (1992)), using substrate 17 referenced in that article. The substrate is: Acetyl-Tyr-Val-Ala-Asp-amino-4-methylcoumarin (AMC). The following components are mixed:
The assay is run in a 96 well microtiter plate. Buffer and ICE are added to the wells. The components are left to incubate at 37° C. for 15 minutes in a temperature-controlled wellplate. After the 15 minute incubation, the reaction is started by adding substrate directly to the wells and the reaction is monitored @37° C. for 30 minutes by following the release of the AMC fluorophore using an excitation wavelength for 380 nm and an emission wavelength of 460 nm. A linear fit of the data for each well is performed and a rate is determined in fluorescence units per second.
For determination of enzyme inhibition constants (Ki) or the mode of inhibition (competitive, uncompetitive or noncompetitive), the rate data determined in the enzyme assays at varying inhibitor concentrations are computer-fit to standard enzyme kinetic equations (see I. H. Segel, Enzyme Kinetics, Wiley-Interscience, 1975).
The determination of second order rate constants for irreversible inhibitors was performed by fitting the fluorescence vs time data to the progress equations of Morrison. Morrison, J. F., Mol. Cell. Biophys., 2, pp. 347-368 (1985). Thornberry et al. have published a description of these methods for measurement of rate constants of irreversible inhibitors of ICE. Thornberry, N. A., et al. Biochemistry, 33, pp. 3923-3940 (1994). For compounds where no prior complex formation can be observed kinetically, the second order rate constants (kinact) are derived directly from the slope of the linear plots of kobs vs. [I]. For compounds where prior complex formation to the enzyme can be detected, the hyperbolic plots of kobs vs. [I] are fit to the equation for saturation kinetics to first generate Ki and k′. The second order rate constant kinact is then given by k′/Ki.
(§1) The selectivity of a panel of reversible inhibitors for ICE homologs is depicted in Table 1. ICE enzyme assays were performed according to Wilson et al (supra 1994) using a YVAD-AMC substrate (Thornberry et al, supra 1992). Assay of TX activity was performed using the ICE substrate under identical conditions to ICE. Assay of CPP32 was performed using a DEVD-AMC substrate (Nicholson et al., supra 1995). In general, there is low selectivity between ICE and TX for a wide range of scaffolds. None of the synthetic ICE compounds tested are effective inhibitors of CPP32.
(§2) Second-order rate constants for inactivation of ICE and ICE homologs with selected irreversible inhibitors are presented below (Table 2). The irreversible compounds studied are broad spectrum inhibitors of ICE and its homologs. Some selectivity, however, is observed with the irreversible compounds comparing inhibition of ICE and CPP32.

[2] = biological target: T2, TX (Homo sapiens, UniProt P49662); assay: Inhibition of ICE homologs: TX; format: biochemical; details: second-order rate constant for inactivation, irreversible inhibitors (Table 2)
T2 construct: made in house; host or cells: Spodoptera frugiperda (Sf9) insect cells, recombinant baculovirus (pVL1393/TX)
T2 sequence (P49662 81-270 limits assumed): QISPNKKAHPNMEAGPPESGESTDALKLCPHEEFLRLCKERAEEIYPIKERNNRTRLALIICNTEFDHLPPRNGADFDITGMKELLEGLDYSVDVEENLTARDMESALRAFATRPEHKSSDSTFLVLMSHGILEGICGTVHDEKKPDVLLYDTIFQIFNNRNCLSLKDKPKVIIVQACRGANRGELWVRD
T2 sequence (P49662 290-377 limits assumed): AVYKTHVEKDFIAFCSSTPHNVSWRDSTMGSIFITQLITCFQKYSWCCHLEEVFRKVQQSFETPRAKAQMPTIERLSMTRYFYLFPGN
Text: Expression of TX in insect cells using a baculovirus expression system. We have subcloned Tx cDNA (Faucheu et al., supra 1995) into a modified pVL1393 transfer vector, co-transfected the resultant plasmid (pVL1393/TX) into insect cells with viral DNA and identified the recombinant baculovirus. After the generation of high titer recombinant virus stock, the medium was examined for TX activity using the visible ICE assay. […] ICE was used as a standard in the assay.
as §1, §2

[3] = system: U937 cells; assay: Fas-induced apoptosis in U937 cells; details: Homo sapiens, U-937, read-out: Inhibition of apoptosis
Procedure: Fas-Induced Apoptosis in U937 cells. Compounds were evaluated for their ability to block anti-Fas-induced apopotosis. […] We used this cell line for apoptosis studies. U937 cells were seeded in culture at 1×10^5 cells/ml and grown to ˜5×10^6 cells/ml. For apoptosis experiments, 2×10^6 cells were plated in 24-well tissue culture plates in 1 ml RPMI-1640-10% FBS and stimulated with 100 ng/ml anti-Fas antigen antibody (Medical and Biological Laboratories, Ltd.). After a 24 hr incubation at 37° C., the percentage of apoptotic cells was determined by FACS analysis using ApoTag reagents.

[4] = system: IL-1β production, LPS-challenged mice; assay: In vivo acute assay for efficacy as anti-inflammatory agent: LPS-induced IL-1β production in mice; parameters: species or system mouse; details: for inhibition of IL-1β production after oral administration, dosed at time of LPS challenge: LPS-challenged mice, vehicles ethanol/PEG/water, β-cyclodextrin, labrosol/water or cremophor/water, result in words; for Inhibition (%) of IL-1β production in LPS-challenged mice: oral, dosed at time of LPS challenge
Outline: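 CD1 mice (n=6) were challenged with LPS 20 mg/kg IP and given compound IP in olive oil:DMSO:ethanol (90:5:5) 1 h after LPS, or at the time of challenge for some analogs. Blood was taken 7 h after LPS and serum IL-1β was measured by ELISA. Oral gavage at 50 mg/kg was also tested.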

[5] = system: male DBA/1J mice, type II collagen-induced arthritis; assay: Type II collagen-induced arthritis; format: in vivo, mouse; details: oral gavage twice a day 10, 25 and 50 mg/kg (214e: 50 mg/kg once a day), Arthritis Severity Score, result in words
Procedure: Type II Collagen-Induced Arthritis
Type II collagen-induced arthritis was established in male DBA/1J mice at described Wooley and Geiger (Wooley, P. H., Methods in Enzymology, 162, pp. 361-373 (1988) and Geiger, T., Clinical and Experimental Rheumatology, 11, pp. 515-522 (1993)). Chick sternum Type II collagen ([…] in 10 mM acetic acid) was emulsified with an equal volume of Freund's complete adjuvant (FCA) by repeated passages (400) between two 10 ml glass syringes with a gauge 16 double-hub needle. Mice were immunized by intradermal injection (50 μl; […], CII per mouse) of collagen emulsion 21 days later at the contra-lateral side of the tail base. Drugs were administered twice a day (10, 25 and 50 mg/kg) by oral gavage approximately 7 h apart. Vehicles used included ethanol/PEG/water, β-cyclodextrin, labrosol/water or cremophor/water. Drug treatments were initiated within 2 h of the CII booster immunization. Inflammation was scored on a 1 to 4 scale of increasing severity on the two front paws and the scores are added to give the final score.

[6] = In vivo bioavailability determination (oral, rat); details: for blood levels of drug when dosed orally: oral 10-100 mg/kg; for blood levels of drug when dosed orally / drug availability when dosed orally: result in words; for Drug Availability / Cmax / drug availability when dosed orally: oral; for Cmax: aldehyde (drug) concentration
Procedure: In Vivo Bioavailability Determination
The drugs (10-100 mg/kg) were dosed orally to rats (10 mL/kg) in ethanol/PEG/water, β-cyclodextrin, labrosol/water or cremophor/water. Blood samples were drawn from the carotid artery at 0.25, 0.50, 1, 1.5, 2, 3, 4, 6, and 8 hours after dosing, centrifuged to plasma and stored at −70° C. until analysis. Aldehyde concentrations were determined using an enzymatic assay. Pharmacokinetic analysis of data was performed by non-linear regression using RStrip (MicroMath Software, UT).

[7] = system: IL-1β levels in the peritoneal fluid, carrageenan-challenged mice; assay: Mouse carrageenan peritoneal inflammation; format: in vivo; details: for Inhibition (%) of IL-1β production in carrageenan-challenged mice: oral
Procedure: Mouse Carrageenan Peritoneal Inflammation
Inflammation was induced in mice with an intraperitoneal (IP) injection of 10 mg carrageenan in 0.5 ml of saline (Griswold et al., Inflammation, 13, pp. 727-739 (1989)). Drugs are administered by oral gavage in ethanol/PEG/water, β-cyclodextrin, labrosol/water or cremophor/water vehicle. The mice are sacrificed at 4 hours post carrageenan administration, then injected IP with 2 ml of saline containing 5 U/ml heparin. After gentle massage of the peritoneum, a small incision is made, the contents collected and volume recorded. Samples are kept on ice until centrifuged (130×g, 8 mins at 4° C.) to remove cellular material, and the resultant supernatant stored at −20° C. IL-1β levels in the peritoneal fluid are determined by ELISA.

Row | SMILES | inhibition of IL-1β production after oral administration, dosed at time of LPS challenge [4] | Inhibition (%) of IL-1β production in LPS-challenged mice ([4]; 10 mg/kg dose) | Inhibition (%) of IL-1β production in LPS-challenged mice ([4]; 25 mg/kg dose) | Inhibition (%) of IL-1β production in LPS-challenged mice ([4]; 50 mg/kg dose) | inhibition of inflammation / progression of type II collagen-induced arthritis [5] | blood levels of drug when dosed orally [6] | drug availability when dosed orally [6] | Inhibition (%) of IL-1β production in carrageenan-challenged mice ([7]; dose 1 mg/kg) | Inhibition (%) of IL-1β production in carrageenan-challenged mice ([7]; dose 10 mg/kg) | Inhibition (%) of IL-1β production in carrageenan-challenged mice ([7]; dose 25 mg/kg) | Inhibition (%) of IL-1β production in carrageenan-challenged mice ([7]; dose 50 mg/kg) | Inhibition (%) of IL-1β production in carrageenan-challenged mice ([7]; dose 100 mg/kg) | Drug Availability ([6]; dose 25 mg/kg) | Cmax ([6]; dose 25 mg/kg) | further results
1 | O=C(O)C[C@H](NC(=O)CN1C(=O)[C@@H](NC(=O)CCc2ccccc2)CN(C(=O)CCc2ccccc2)c2ccccc21)C(=O)COC(=O)c1c(Cl)cccc1Cl [Compound 108a, 2,6-Dichlorobenzoic acid 4-carboxy-2-oxo-3(S)-{2-[2-oxo-5-(3-phenylpropionyl)-3(S)-(3-phenylpropionylamino)-2,3,4,5-tetrahydrobenzo[b][1,4]diazepin-1-yl]acetylamino}butyl ester] |  |  |  |  |  |  |  |  |  |  |  |  |  |  | Fluorescent Assay kinact ([1]; Table 6): 1 × 10^5 m^−1 s^−1; kinact (ICE) ([1]; second-order rate constant for inactivation, irreversible inhibitors (Table 2)): 100,000 M^−1 s^−1; kinact (TX) [2]: 25,000 M^−1 s^−1; inhibition at 20 µM [3]: > 75%
2 | O=C(CN1C(=O)[C@@H](NC(=O)c2nccc3ccccc23)CN(C(=O)CO)c2ccccc21)N[C@H]1CC(=O)OC1OCc1ccccc1 (mixture of isomers) [Compound 696a, (3S)-2-Oxo-3-(isoquinolin-1-oyl)amino-5-hydroxyacetyl-N-[(2RS,3S)-benzyloxy-5-oxo-tetrahydrofuran-3-yl]-2,3,4,5-tetrahydro-1H-1,5-benzodiazepine-1-acetamide] | inhibit IL-1β production | 0% | 45% | 52% | inhibit inflammation; also recorded: blocks the progression | significant blood levels of drug | good drug availability |  |  |  |  |  |  |  | Drug Availability ([6]; dose 50 mg/kg): 10%; Cmax ([6]; dose 50 mg/kg): 1.2 µg/mL
3 | O=C1C[C@H](NC(=O)[C@@H]2CCCN3C(=O)CC[C@H](NC(=O)c4nccc5ccccc45)C(=O)N23)[C@H](OC2CCCC2)O1 [Compound 412d, [1S,9S(2R,3S)]N-(2-Cyclopentoxy-5-oxotetrahydrofuran-3-yl)-6,10-dioxo-9-(isoquinolin-1-oylamino)-1,2,3,4,7,8,9,10-octahydro-6-H-pyridazino[1,2-a][1,2]diazepine-1-carboxamide] | inhibit IL-1β production |  |  |  | inhibit inflammation; also recorded: blocks the progression | significant blood levels of drug | good drug availability | 0% | 32% | 31% | 36% | 53% | 35% | 2.6 µg/mL | 
4 | CCO[C@@H]1OC(=O)C[C@@H]1NC(=O)[C@@H]1CCCN2C(=O)CC[C@H](NC(=O)c3nccc4ccccc34)C(=O)N12 [Compound 412f, [1S,9S(2R,3S)]N-(2-Ethoxy-5-oxotetrahydrofuran-3-yl)-6,10-dioxo-9-(isoquinolin-1-oylamino)-1,2,3,4,7,8,9,10-octahydro-6-H-pyridazino[1,2-a][1,2]diazepine-1-carboxamide] | inhibit IL-1β production | 17% | 25% | 32% | inhibit inflammation; also recorded: blocks the progression | significant blood levels of drug | good drug availability | 30% | 54% | 49% | 73% | 75% | 32% | 2.4 µg/mL | inhibition of IL-1β production in carrageenan-challenged mice ([7]; oral administration, 214e at 50 mg/kg, result in words): inhibits IL-1β production
